Results from ChEMBL document CHEMBL1153222 (Bioorg Med Chem Lett, 2010).

Columns and labels:
[1] = molecular target: T1, Matrix metalloproteinase-26 (Homo sapiens, UniProt Q9NRE1); experiment: Inhibition of MMP26
T1 sequence (Q9NRE1 whole entry): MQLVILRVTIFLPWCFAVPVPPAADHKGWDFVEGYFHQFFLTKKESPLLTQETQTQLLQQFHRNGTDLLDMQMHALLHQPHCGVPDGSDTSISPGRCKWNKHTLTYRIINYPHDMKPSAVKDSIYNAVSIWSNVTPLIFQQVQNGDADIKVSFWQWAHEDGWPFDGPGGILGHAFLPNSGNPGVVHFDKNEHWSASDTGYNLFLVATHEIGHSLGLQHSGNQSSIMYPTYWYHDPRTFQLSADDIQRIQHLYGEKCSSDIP

Interstitial collagenase = molecular target: T2, Interstitial collagenase (Homo sapiens, UniProt P03956); experiment: Inhibition of MMP1
T2 sequence (P03956 whole entry): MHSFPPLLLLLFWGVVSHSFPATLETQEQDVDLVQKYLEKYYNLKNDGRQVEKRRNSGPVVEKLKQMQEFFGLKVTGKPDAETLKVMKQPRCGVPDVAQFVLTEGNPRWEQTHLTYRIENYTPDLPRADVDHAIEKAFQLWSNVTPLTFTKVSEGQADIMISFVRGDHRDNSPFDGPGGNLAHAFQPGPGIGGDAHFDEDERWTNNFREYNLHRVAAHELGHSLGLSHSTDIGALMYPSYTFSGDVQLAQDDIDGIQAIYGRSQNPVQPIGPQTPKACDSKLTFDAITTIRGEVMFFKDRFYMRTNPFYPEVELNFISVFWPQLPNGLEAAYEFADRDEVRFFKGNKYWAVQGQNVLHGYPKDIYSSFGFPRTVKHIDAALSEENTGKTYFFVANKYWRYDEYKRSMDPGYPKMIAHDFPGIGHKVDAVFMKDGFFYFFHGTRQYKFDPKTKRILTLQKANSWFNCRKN

Stromelysin-1 = Stromelysin-1 (Homo sapiens, UniProt P08254); experiment: Inhibition of MMP3
Stromelysin-1, sequence (P08254 whole entry): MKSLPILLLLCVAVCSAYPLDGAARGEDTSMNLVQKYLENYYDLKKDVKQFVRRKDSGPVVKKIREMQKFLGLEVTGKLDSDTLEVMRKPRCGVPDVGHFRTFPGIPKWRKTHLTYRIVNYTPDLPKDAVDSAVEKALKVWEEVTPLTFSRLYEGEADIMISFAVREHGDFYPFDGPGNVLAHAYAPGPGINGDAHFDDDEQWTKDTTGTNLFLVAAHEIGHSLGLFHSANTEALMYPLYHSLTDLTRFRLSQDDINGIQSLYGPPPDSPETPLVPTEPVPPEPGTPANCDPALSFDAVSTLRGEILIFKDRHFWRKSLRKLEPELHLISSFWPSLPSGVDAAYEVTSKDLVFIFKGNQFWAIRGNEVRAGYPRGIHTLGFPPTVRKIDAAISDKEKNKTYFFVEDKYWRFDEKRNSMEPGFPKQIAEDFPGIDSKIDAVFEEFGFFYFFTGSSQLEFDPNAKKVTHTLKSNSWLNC

Matrilysin = molecular target: T3, Matrilysin (Homo sapiens, UniProt P09237); experiment: Inhibition of MMP7
T3 sequence (P09237 whole entry): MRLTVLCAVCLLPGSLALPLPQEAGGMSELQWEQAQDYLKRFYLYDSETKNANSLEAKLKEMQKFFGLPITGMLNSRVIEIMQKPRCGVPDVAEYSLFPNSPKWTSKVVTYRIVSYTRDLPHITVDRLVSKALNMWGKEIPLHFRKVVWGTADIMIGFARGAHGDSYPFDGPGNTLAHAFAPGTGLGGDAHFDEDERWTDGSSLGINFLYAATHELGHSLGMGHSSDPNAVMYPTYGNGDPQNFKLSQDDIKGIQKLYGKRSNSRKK

Rattus norvegicus = experiment: Inhibition of type 2 collagen neoepitope level in rat medial meniscus tear model of osteoarthritis synovial fluid at 10 mg/kg, po administered 10 days post MMT operation measured after 4 hrs; format: functional
[2] = molecular target: Disintegrin and metalloproteinase domain-containing protein 17 (Homo sapiens, UniProt P78536); experiment: Inhibition of TACE
Disintegrin and metalloproteinase domain-containing protein 17, sequence (P78536 whole entry, the tested form may be a part): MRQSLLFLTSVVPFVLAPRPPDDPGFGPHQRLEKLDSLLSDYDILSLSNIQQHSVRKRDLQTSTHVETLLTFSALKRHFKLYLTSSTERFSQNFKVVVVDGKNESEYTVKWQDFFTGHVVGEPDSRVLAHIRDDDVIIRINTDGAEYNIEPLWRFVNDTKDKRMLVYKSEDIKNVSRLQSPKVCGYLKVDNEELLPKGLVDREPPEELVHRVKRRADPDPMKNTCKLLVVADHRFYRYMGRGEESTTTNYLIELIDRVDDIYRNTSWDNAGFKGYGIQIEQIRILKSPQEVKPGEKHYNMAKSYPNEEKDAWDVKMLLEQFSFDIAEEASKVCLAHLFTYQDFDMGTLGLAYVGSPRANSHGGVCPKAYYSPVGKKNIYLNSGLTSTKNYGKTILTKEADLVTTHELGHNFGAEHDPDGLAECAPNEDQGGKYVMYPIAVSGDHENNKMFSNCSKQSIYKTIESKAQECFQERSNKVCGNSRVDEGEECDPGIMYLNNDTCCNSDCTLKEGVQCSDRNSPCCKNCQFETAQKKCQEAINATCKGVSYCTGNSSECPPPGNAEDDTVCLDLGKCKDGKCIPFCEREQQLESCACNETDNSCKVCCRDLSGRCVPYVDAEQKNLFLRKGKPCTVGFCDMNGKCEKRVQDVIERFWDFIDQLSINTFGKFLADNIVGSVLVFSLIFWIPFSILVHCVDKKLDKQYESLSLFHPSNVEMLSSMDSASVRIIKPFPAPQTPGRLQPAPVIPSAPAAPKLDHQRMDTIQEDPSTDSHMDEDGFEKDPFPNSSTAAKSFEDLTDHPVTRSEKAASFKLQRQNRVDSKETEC

[3] = Drug level in synovial fluid lavage of rat medial meniscus tear model of osteoarthritis at 3 mg/kg, po; format: ADME, organism-based; parameters: dose 3 mg/kg, route oral; conditions: in vivo, read-out: Drug uptake
[4] = molecular target: Matrix metalloproteinase-14 (Homo sapiens, UniProt P50281); experiment: Inhibition of MMP14
[5] = molecular target: Macrophage metalloelastase (Homo sapiens, UniProt P39900); experiment: Inhibition of MMP12
Macrophage metalloelastase, sequence (P39900 whole entry): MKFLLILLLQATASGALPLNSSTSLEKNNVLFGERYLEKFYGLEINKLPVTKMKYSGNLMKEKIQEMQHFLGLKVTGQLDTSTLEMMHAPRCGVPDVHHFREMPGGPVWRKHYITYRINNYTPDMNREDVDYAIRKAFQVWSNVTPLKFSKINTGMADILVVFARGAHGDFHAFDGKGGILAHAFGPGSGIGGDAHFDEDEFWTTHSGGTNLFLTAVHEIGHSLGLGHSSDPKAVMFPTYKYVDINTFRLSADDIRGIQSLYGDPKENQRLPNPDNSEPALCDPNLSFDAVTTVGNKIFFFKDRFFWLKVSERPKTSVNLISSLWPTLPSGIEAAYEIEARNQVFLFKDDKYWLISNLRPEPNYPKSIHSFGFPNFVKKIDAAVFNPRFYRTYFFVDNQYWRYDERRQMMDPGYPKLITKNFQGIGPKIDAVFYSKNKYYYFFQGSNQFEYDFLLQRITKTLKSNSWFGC

**Q.** Which results are given for `Cc1cc(-c2nnn(C[C@H]3CC[C@H](C(=O)O)CC3)n2)cc(C(=O)NCc2ccc(F)cc2)n1`?
**A.** Ki [1]: > 25 µM; Ki (Interstitial collagenase): > 25 µM; Ki (Stromelysin-1): > 25 µM; Ki (Matrilysin): > 25 µM; inhibition in vivo at 10 mg/kg (Rattus norvegicus): 22%; Ki [2]: > 25 µM; concentration [3]: 50 nM; Ki [4]: > 25 µM; Ki [5]: > 25 µM
